# Measurements as given in patent US20150044316A1, “METHOD FOR PREPARING A PURIFIED EXTRACT OF LONICERA JAPONICA THUNBERG AND THE COMPOSITION COMPRISING THE SAME FOR PREVENTING AND TREATING SEPSIS AND SEPTIC SHOCK” (Huons Co., Ltd., priority 2012, published 2015).
# Test system: severe sepsis CLP model
# Conditions: severe sepsis CLP mice
# Protocol: To assess the treating activity of the combination of the purified extract prepared in the Examples with antibiotics on severe sepsis, following experiment was performed by using severe sepsis CLP model according to the modified procedure disclosed in the procedure (Daniel Rittirsch, et al. Immuodesign of Experimental sepsis by cecal ligation and puncture. Nature Protocols, Vol. 4(1), pp 31-36, 2009).
# Anesthetic(ketamine hydrochloride, 100 mg/kg, Yuhan Pharm. Co.) was intraperitoneally injected to the mice (ICR female, 23-25 g, 8 weeks-old, www.dhbiolink.com) and sepsis was induced to the mice using by CLP (Cecal ligation and puncture). Cavus abdominis medians was dissected and cecum was exposed to ligate the distal ileocecal valve by silk suture (medical suture thread No. 1 & No. 2, www. lead-care.com), Two-holes were made at the cecum by a thread so as to exude the certain amount of fecal material. The cecum was put into the abdominal cavity together with fecal material and physiological saline solution was subcutaneously injected thereto to induce sepsis.
# In particular, the suturing position of the distal ileocecal valve was changed and the number of puncture was more than 2 to increase the amount of fecal material in this experiment in order to inducing severe sepsis CLP model.
# [1] = imipenem 25 mg/kg, HS-23 40 mg/kg
compound,measurement,setting,value
"C[C@@H](O)[C@H]1C(=O)N2C(C(=O)O)=C(SCCN=CN)C[C@H]12 [Imipenem, imipenem]",survival rate at 1st day after the CLP,"imipenem 25 mg/kg every 12 hours for 4 days, HS-23 40 mg/kg i.v.",83%
same,final survival rate at 10th days,[1],33%
same,survival rate at 2nd day after the CLP,[1],58%
same,survival rate at 3rd day after the CLP,[1],50%
same,survival rate at 4th day to 10th day after the CLP,[1],42%
